Test system: MDA-MB-468 complex spheroids with HUVEC/MSC, viability
Test: Anticancer human tumor MDA-MB-468 cell line growth inhibition;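 note: spheroids exposed to agents for seven days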;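 for viability, T/C: 100% = DMSO vehicle control viability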
Conditions: for IC50: curve of first compound; for viability, T/C: stronger effect = lower value
How it was run: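 Complex spheroids of tumor cells with HUVEC and human MSCs, exposed to iadademstat combined with other agents. Each agent tested in half-log steps from near clinical Cmax (else 10 microM top), DMSO ≤0.25%.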

[1] = second compound 0.1 µM, first compound 0.0316 µM
[2] = second compound 0.1 µM, first compound 0.1 µM
[3] = second compound 0.1 µM, first compound 0.316 µM
[4] = second compound 0.1 µM, first compound 1 µM
[5] = second compound 0.1 µM, first compound 3.16 µM
[6] = second compound 0.1 µM, first compound 10 µM
[7] = second compound 0.316 µM, first compound 0.0316 µM
[8] = second compound 0.316 µM, first compound 0.1 µM
[9] = second compound 0.316 µM, first compound 0.316 µM
[10] = second compound 0.316 µM, first compound 1 µM
[11] = second compound 0.316 µM, first compound 3.16 µM
[12] = second compound 0.316 µM, first compound 10 µM
[13] = second compound 1 µM, first compound 0.0316 µM
[14] = second compound 1 µM, first compound 0.1 µM
[15] = second compound 1 µM, first compound 0.316 µM
[16] = second compound 1 µM, first compound 1 µM
[17] = second compound 1 µM, first compound 3.16 µM
[18] = second compound 1 µM, first compound 10 µM
[19] = second compound 3.16 µM, first compound 0.0316 µM
[20] = second compound 3.16 µM, first compound 0.1 µM
[21] = second compound 3.16 µM, first compound 0.316 µM
[22] = second compound 3.16 µM, first compound 1 µM
[23] = second compound 3.16 µM, first compound 3.16 µM
[24] = second compound 3.16 µM, first compound 10 µM
[25] = second compound 10 µM, first compound 0.0316 µM
[26] = second compound 10 µM, first compound 0.1 µM
[27] = second compound 10 µM, first compound 0.316 µM
[28] = second compound 10 µM, first compound 1 µM
[29] = second compound 10 µM, first compound 3.16 µM
[30] = second compound 10 µM, first compound 10 µM
[31] = second compound 0.1 µM, first compound 0.00949 µM
[32] = second compound 0.1 µM, first compound 0.03 µM
[33] = second compound 0.1 µM, first compound 0.0949 µM
[34] = second compound 0.1 µM, first compound 0.3 µM
[35] = second compound 0.316 µM, first compound 0.00949 µM
[36] = second compound 0.316 µM, first compound 0.03 µM
[37] = second compound 0.316 µM, first compound 0.0949 µM
[38] = second compound 0.316 µM, first compound 0.3 µM
[39] = second compound 1 µM, first compound 0.00949 µM
[40] = second compound 1 µM, first compound 0.03 µM
[41] = second compound 1 µM, first compound 0.0949 µM
[42] = second compound 1 µM, first compound 0.3 µM
[43] = second compound 3.16 µM, first compound 0.00949 µM
[44] = second compound 3.16 µM, first compound 0.03 µM
[45] = second compound 3.16 µM, first compound 0.0949 µM
[46] = second compound 3.16 µM, first compound 0.3 µM
[47] = second compound 10 µM, first compound 0.00949 µM
[48] = second compound 10 µM, first compound 0.03 µM
[49] = second compound 10 µM, first compound 0.0949 µM
[50] = second compound 10 µM, first compound 0.3 µM

SMILES: CC1(C)CCC(CN2CCN(c3ccc(C(=O)NS(=O)(=O)c4ccc(NCC5CCOCC5)c([N+](=O)[O-])c4)c(Oc4cnc5[nH]ccc5c4)c3)CC2)=C(c2ccc(Cl)cc2)C1 + NC1CC1c1ccc(-c2cccc(O)c2)cc1
- IC50 (second compound 0.1 µM): 1820 nM
- IC50 (second compound 0.316 µM): 1700 nM
- IC50 (second compound 1 µM): 1830 nM
- IC50 (second compound 3.16 µM): 1550 nM
- IC50 (second compound 10 µM): 509 nM
- viability, T/C [1]: 106%
- viability, T/C [2]: 90.4%
- viability, T/C [3]: 96.9%
- viability, T/C [4]: 72.7%
- viability, T/C [5]: 29%
- viability, T/C [6]: 2.15%
- viability, T/C [7]: 90.3%
- viability, T/C [8]: 108%
- viability, T/C [9]: 94.4%
- viability, T/C [10]: 64.7%
- viability, T/C [11]: 30.9%
- viability, T/C [12]: 1.99%
- viability, T/C [13]: 93.7%
- viability, T/C [14]: 101%
- viability, T/C [15]: 88.6%
- viability, T/C [16]: 75.8%
- viability, T/C [17]: 27.4%
- viability, T/C [18]: 2.31%
- viability, T/C [19]: 91.2%
- viability, T/C [20]: 83.1%
- viability, T/C [21]: 92.1%
- viability, T/C [22]: 64%
- viability, T/C [23]: 24.5%
- viability, T/C [24]: 1.95%
- viability, T/C [25]: 78.5%
- viability, T/C [26]: 67.7%
- viability, T/C [27]: 59.9%
- viability, T/C [28]: 38.5%
- viability, T/C [29]: 16.8%
- viability, T/C [30]: 1.82%

SMILES: CC1COCCN1c1cc(C2(S(C)(=N)=O)CC2)nc(-c2ccnc3[nH]ccc23)n1 (stereo not given) + NC1CC1c1ccc(-c2cccc(O)c2)cc1
- IC50 (second compound 0.1 µM): 714 nM
- IC50 (second compound 0.316 µM): 771 nM
- IC50 (second compound 1 µM): 613 nM
- IC50 (second compound 3.16 µM): 603 nM
- IC50 (second compound 10 µM): 189 nM
- viability, T/C [1]: 80%
- viability, T/C [2]: 88.2%
- viability, T/C [3]: 65.3%
- viability, T/C [4]: 42.1%
- viability, T/C [5]: 22%
- viability, T/C [6]: 9.29%
- viability, T/C [7]: 95.1%
- viability, T/C [8]: 104%
- viability, T/C [9]: 62.3%
- viability, T/C [10]: 47.7%
- viability, T/C [11]: 20.8%
- viability, T/C [12]: 7.91%
- viability, T/C [13]: 95.3%
- viability, T/C [14]: 80.5%
- viability, T/C [15]: 69.5%
- viability, T/C [16]: 36.2%
- viability, T/C [17]: 17.8%
- viability, T/C [18]: 7.07%
- viability, T/C [19]: 96.4%
- viability, T/C [20]: 101%
- viability, T/C [21]: 67.1%
- viability, T/C [22]: 34.6%
- viability, T/C [23]: 17.9%
- viability, T/C [24]: 7.17%
- viability, T/C [25]: 64.4%
- viability, T/C [26]: 59.7%
- viability, T/C [27]: 42%
- viability, T/C [28]: 28.8%
- viability, T/C [29]: 15.8%
- viability, T/C [30]: 6.83%

SMILES: CCN(c1cc(-c2ccc(CN3CCOCC3)cc2)cc(C(=O)NCc2c(C)cc(C)[nH]c2=O)c1C)C1CCOCC1 + NC1CC1c1ccc(-c2cccc(O)c2)cc1
- IC50 (second compound 0.1 µM): 219 nM
- IC50 (second compound 0.316 µM): 214 nM
- IC50 (second compound 1 µM): 171 nM
- IC50 (second compound 3.16 µM): 171 nM
- IC50 (second compound 10 µM): 69.1 nM
- viability, T/C [31]: 98.8%
- viability, T/C [32]: 89.1%
- viability, T/C [33]: 64.3%
- viability, T/C [34]: 42.8%
- viability, T/C (second compound 0.1 µM, first compound 0.949 µM): 34.9%
- viability, T/C (second compound 0.1 µM, first compound 3 µM): 23%
- viability, T/C [35]: 90%
- viability, T/C [36]: 98.7%
- viability, T/C [37]: 62.1%
- viability, T/C [38]: 46.3%
- viability, T/C (second compound 0.316 µM, first compound 0.949 µM): 33.7%
- viability, T/C (second compound 0.316 µM, first compound 3 µM): 25.8%
- viability, T/C [39]: 82.3%
- viability, T/C [40]: 79%
- viability, T/C [41]: 57.2%
- viability, T/C [42]: 41.7%
- viability, T/C (second compound 1 µM, first compound 0.949 µM): 28.6%
- viability, T/C (second compound 1 µM, first compound 3 µM): 22.3%
- viability, T/C [43]: 80%
- viability, T/C [44]: 86.1%
- viability, T/C [45]: 61.8%
- viability, T/C [46]: 37.5%
- viability, T/C (second compound 3.16 µM, first compound 0.949 µM): 29.3%
- viability, T/C (second compound 3.16 µM, first compound 3 µM): 22.1%
- viability, T/C [47]: 76.6%
- viability, T/C [48]: 60.4%
- viability, T/C [49]: 46.5%
- viability, T/C [50]: 33.7%
- viability, T/C (second compound 10 µM, first compound 0.949 µM): 29%
- viability, T/C (second compound 10 µM, first compound 3 µM): 22.3%

SMILES: Cn1ncnc1C1c2n[nH]c(=O)c3cc(F)cc(c23)NC1c1ccc(F)cc1 (stereo not given) + NC1CC1c1ccc(-c2cccc(O)c2)cc1
- IC50 (second compound 0.1 µM): 87.7 nM
- IC50 (second compound 0.316 µM): > 100 nM
- IC50 (second compound 1 µM): > 100 nM
- IC50 (second compound 3.16 µM): 12 nM
- IC50 (second compound 10 µM): 2.6 nM
- viability, T/C (second compound 0.1 µM, first compound 0.000316 µM): 98.1%
- viability, T/C (second compound 0.1 µM, first compound 0.001 µM): 102%
- viability, T/C (second compound 0.1 µM, first compound 0.00316 µM): 72.5%
- viability, T/C (second compound 0.1 µM, first compound 0.01 µM): 73.1%
- viability, T/C [1]: 64.6%
- viability, T/C [2]: 46.7%
- viability, T/C (second compound 0.316 µM, first compound 0.000316 µM): 120%
- viability, T/C (second compound 0.316 µM, first compound 0.001 µM): 79.1%
- viability, T/C (second compound 0.316 µM, first compound 0.00316 µM): 67.4%
- viability, T/C (second compound 0.316 µM, first compound 0.01 µM): 60.9%
- viability, T/C [7]: 52.8%
- viability, T/C [8]: 46%
- viability, T/C (second compound 1 µM, first compound 0.000316 µM): 93.2%
- viability, T/C (second compound 1 µM, first compound 0.001 µM): 112%
- viability, T/C (second compound 1 µM, first compound 0.00316 µM): 67%
- viability, T/C (second compound 1 µM, first compound 0.01 µM): 57.6%
- viability, T/C [13]: 61.9%
- viability, T/C [14]: 42.4%
- viability, T/C (second compound 3.16 µM, first compound 0.000316 µM): 92.8%
- viability, T/C (second compound 3.16 µM, first compound 0.001 µM): 85.5%
- viability, T/C (second compound 3.16 µM, first compound 0.00316 µM): 74.5%
- viability, T/C (second compound 3.16 µM, first compound 0.01 µM): 48.2%
- viability, T/C [19]: 50.6%
- viability, T/C [20]: 39.1%
- viability, T/C (second compound 10 µM, first compound 0.000316 µM): 74.1%
- viability, T/C (second compound 10 µM, first compound 0.001 µM): 67.7%
- viability, T/C (second compound 10 µM, first compound 0.00316 µM): 45.9%
- viability, T/C (second compound 10 µM, first compound 0.01 µM): 33.5%
- viability, T/C [25]: 34.8%
- viability, T/C [26]: 26.3%

SMILES: Nc1ncn(C2CC(O)C(CO)S2)c(=O)n1 (stereo not given) + NC1CC1c1ccc(-c2cccc(O)c2)cc1
- IC50 (second compound 0.1 µM): 21.2 nM
- IC50 (second compound 0.316 µM): 18.9 nM
- IC50 (second compound 1 µM): 11.8 nM
- IC50 (second compound 3.16 µM): 10.7 nM
- IC50 (second compound 10 µM): 3.83 nM
- viability, T/C (second compound 0.1 µM, first compound 0.000949 µM): 104%
- viability, T/C (second compound 0.1 µM, first compound 0.003 µM): 87.9%
- viability, T/C [31]: 56.7%
- viability, T/C [32]: 47.2%
- viability, T/C [33]: 31.8%
- viability, T/C [34]: 19.5%
- viability, T/C (second compound 0.316 µM, first compound 0.000949 µM): 84%
- viability, T/C (second compound 0.316 µM, first compound 0.003 µM): 77.1%
- viability, T/C [35]: 57.8%
- viability, T/C [36]: 45.1%
- viability, T/C [37]: 26.3%
- viability, T/C [38]: 16.4%
- viability, T/C (second compound 1 µM, first compound 0.000949 µM): 80.8%
- viability, T/C (second compound 1 µM, first compound 0.003 µM): 76%
- viability, T/C [39]: 49.6%
- viability, T/C [40]: 35.4%
- viability, T/C [41]: 23.9%
- viability, T/C [42]: 13.9%
- viability, T/C (second compound 3.16 µM, first compound 0.000949 µM): 90.4%
- viability, T/C (second compound 3.16 µM, first compound 0.003 µM): 81.3%
- viability, T/C [43]: 47.7%
- viability, T/C [44]: 33%
- viability, T/C [45]: 22.5%
- viability, T/C [46]: 13.5%
- viability, T/C (second compound 10 µM, first compound 0.000949 µM): 62.5%
- viability, T/C (second compound 10 µM, first compound 0.003 µM): 53.6%
- viability, T/C [47]: 39.1%
- viability, T/C [48]: 29.9%
- viability, T/C [49]: 19.8%
- viability, T/C [50]: 13.8%
